According to patent US20230052740A1, “MODULATORS OF CIRCADIAN RHYTHMS AND USES THEREOF” (The Regents of the University of California, priority 2019, published 2023):

Experiments:
hMT2 = assay: 2-[125I]-iodomelatonin competition binding, CHO cell membranes; details: in 2-[125I]-iodomelatonin binding assays
Experimental: For receptor binding studies, '7447 was dissolved in 50% DMSO/50% ethanol for 13 mM stock solution, diluted 1/10 in 100% ethanol then 1/10 again in 50% ethanol/50% Tris-HCl buffer. Both '3384 and '4226 were dissolved in 100% ethanol for 13 mM stock solutions and then diluted 1/10 in 50% ethanol/50% Tris-HCl buffer. Further dilutions were done in Tris-HCl buffer.
Assays were incubated for 1 hour at 25° C. Bound radioligand was separated from freeby rapidvacuum filtration using glass microfiber filters (Whatman, Krackeler Scientific, Inc., Albany N.Y., USA) saturated in 0.5% polyethylenimine solution.
Affinity shifts or lack thereof with G protein inactivation indicate apparent efficacy (Lefkowitz, R. J. et al., J Biol Chem 251, 4686-4692, 1976) as ligands are classified as agonists (ΔpKi% MLT>20%), antagonists (ΔpKi% MLT<20%, >−20%), or inverse agonists (ΔpKi% MLT<−20%) accordingly.

5HT2c = target: T1, 5HT2c (Homo sapiens, UniProt P28335); assay: PRESTO-Tango GPCR-ome counter-screen, agonist mode; format: cell-based; details: arrestin recruitment Tango, in words
T1 construct: Tango fusion elements (printed only as 'PRESTO-Tango receptor DNAs'); expressed in transfected cells; host or cells: HTLA cells
T1 sequence (P28335 33-458): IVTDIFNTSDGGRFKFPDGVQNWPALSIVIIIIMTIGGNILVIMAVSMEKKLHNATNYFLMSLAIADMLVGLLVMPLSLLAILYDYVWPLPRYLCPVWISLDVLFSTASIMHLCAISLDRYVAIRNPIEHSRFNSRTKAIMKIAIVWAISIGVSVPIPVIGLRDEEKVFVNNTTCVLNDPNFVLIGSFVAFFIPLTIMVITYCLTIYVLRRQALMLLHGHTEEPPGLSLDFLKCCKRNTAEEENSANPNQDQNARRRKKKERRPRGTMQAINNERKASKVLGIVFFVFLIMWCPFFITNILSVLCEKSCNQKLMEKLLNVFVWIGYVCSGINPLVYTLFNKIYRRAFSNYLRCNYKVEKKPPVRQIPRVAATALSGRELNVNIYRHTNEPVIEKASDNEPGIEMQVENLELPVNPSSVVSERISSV
Experimental: Screening of compounds in the PRESTO-Tango GPCR-ome was accomplished as previously described (Kroeze, supra). with several modifications. First, HTLA cells were plated in DMEM with 10% FBS and 10 U/mL penicillin-streptomycin. Next, the cells were transfected using an in-plate PEI method (Longo, P. A. et al., Methods Enzymol 529, 227-240, 2013). PRESTO-Tango receptor DNAs were resuspended in OptiMEM and hybridized with PEI prior to dilution and distribution to 384-well plates and subsequent addition to cells. After overnight incubation, drugs were added to cells without replacement of the medium. The remaining steps of the PRESTO-Tango protocol were followed as previously described.

**Q.** Which results are given for `COc1ccc(Br)c(CNc2cccnc2)c1` [ZINC128734226]?
**A.** MT2/MT1 selectivity (hMT2): 54; off-target agonist activity on 5HT2c (5HT2c): did have some activity on 5HT2c
